Columns and labels:
[1] = Water solubility in aqueous buffer; conditions: aqueous buffer 10 mM Tris-HCl, pH 7.4, 20° C.
Protocol: The solid compounds were added stepwise to the buffer solution. More substance is added once all the suspended material is dissolved until an equilibrium between undissolved and dissolved substance is reached. The suspension was mixed using a shaker (Heidolph Reax 2000) and treated 5 min in an ultrasound bath (Bandelin, Sonorex Super RK255H).

[2] = Relaxivity measurements at 1.41 T in water; assay type: physicochemical; conditions: 37° C., normalized to Gd
Protocol: (§1) Relaxivity measurements at 1.41 T were performed using a MiniSpec mq60 spectrometer (Bruker Analytik, Karlsruhe, Germany) operating at a resonance frequency of 60 MHz and a temperature of 37° C. The T1 relaxation times were determined using the standard inversion recovery (IR) method with a fixed relaxation delay of at least 5×T1. The variable inversion time (TI) was calculated automatically by the standard software of the MiniSpec mq60 (8 steps). The T2 measurements were performed by using a Carr-Purcell-Meiboom-Gill (CPMG) pulse sequence, applying a relaxation delay of at least 5×T1.
Each relaxivity measurement was performed using three different Gd concentrations (3 concentrations between 0.05 and 2 mM). […] Human plasma preparation: For each experiment fresh blood was taken from a volunteer using 10 mL citrate-tubes (Sarstedt S-Monovette 02.1067.001, 10 mL, Citrate). The 10 mL citrate-tubes were carefully inverted 10 times to mix blood and anticoagulant and centrifuged for 15 min at 1811 g at RT (Eppendorf, Centrifuge 5810R).
(§2) The relaxivities n (where i=1, 2) were calculated based on the measured relaxation rates Ri in water and plasma: […]

[3] = Relaxivity measurements at 1.41 T in human plasma; assay type: physicochemical; conditions: 37° C., normalized to Gd
Protocol: as §1, with “The” for “Relaxivity measurements at 1.41 T were performed using a MiniSpec mq60 spectrometer (Bruker Analytik, Karlsruhe, Germany) operating at a resonance frequency of 60 MHz and a temperature of 37° C. The”
Each relaxivity measurement was performed using three different Gd concentrations (3 concentrations between 0.05 and 2 mM).
as §2

OATP1B1 = target: T1, OATP1B1 (Homo sapiens, UniProt Q9Y6L6); experiment: Uptake into stable transfected OATP1B1 HEK 293 cells; assay type: cell-based; conditions: for Uptake into OATP1B1-HEK 293 cells: 40 min incubation, relative to RC1 (Gd-EOB-DTPA); for Inhibition Rifampicine: uptake into OATP1B1-HEK 293 cells
T1 sequence (Q9Y6L6 1-691): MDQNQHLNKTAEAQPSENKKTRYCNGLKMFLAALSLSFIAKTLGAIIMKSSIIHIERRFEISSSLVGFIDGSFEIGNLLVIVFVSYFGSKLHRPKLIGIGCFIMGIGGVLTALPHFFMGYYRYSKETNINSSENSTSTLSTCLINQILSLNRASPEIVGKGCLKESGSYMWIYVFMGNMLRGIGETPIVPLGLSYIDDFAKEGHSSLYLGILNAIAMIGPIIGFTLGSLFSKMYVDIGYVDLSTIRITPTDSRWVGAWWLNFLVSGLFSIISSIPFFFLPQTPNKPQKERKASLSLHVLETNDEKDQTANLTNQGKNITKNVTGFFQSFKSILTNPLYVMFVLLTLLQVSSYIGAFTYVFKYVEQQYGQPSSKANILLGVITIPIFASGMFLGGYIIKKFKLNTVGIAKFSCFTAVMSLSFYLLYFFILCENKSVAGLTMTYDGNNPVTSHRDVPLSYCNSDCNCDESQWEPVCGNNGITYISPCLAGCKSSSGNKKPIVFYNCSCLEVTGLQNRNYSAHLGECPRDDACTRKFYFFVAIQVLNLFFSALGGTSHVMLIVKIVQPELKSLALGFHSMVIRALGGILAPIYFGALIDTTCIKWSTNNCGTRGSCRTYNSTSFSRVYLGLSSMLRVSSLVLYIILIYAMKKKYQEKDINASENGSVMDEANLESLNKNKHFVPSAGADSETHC
Protocol: (§3) Cryopreserved cells were shortly thawed in water bath and diluted in 10 mL warm culture medium (37° C.). After medium change the cells were grown for 3d in a 25 cm^2 cell culture flask. After 3 to 5d the cells were transferred into 75 cm^2 flasks. […] All test items were prepared in transport buffer at a final concentration of 100 M from stock solutions (180 to 500 mM concentration). The OATP1B1 HEK 293 cells were incubated with test solutions (test item in transport buffer 500 L) for 40 min on a thermoshaker without shaking (PHMP, Fa. Grant Bio). Triplicates were performed for each test item. After incubation the cells were washed with 2 mL of cold PBS (+) buffer (Dulbeccos PBS+, Fa. Gibco). […] As a reference standard Gd-EOB-DTPA (gadoxetate) is used in the same well plate.

OATP1B3 = target: T2, OATP1B3 (Homo sapiens, UniProt Q9NPD5); experiment: Uptake into stable transfected OATP1B3 HEK 293 cells; assay type: cell-based; conditions: for Uptake into OATP1B3-HEK 293 cells: 40 min incubation, relative to RC1 (Gd-EOB-DTPA); for Inhibition Rifampicine: uptake into OATP1B3-HEK 293 cells
T2 sequence (Q9NPD5 1-702): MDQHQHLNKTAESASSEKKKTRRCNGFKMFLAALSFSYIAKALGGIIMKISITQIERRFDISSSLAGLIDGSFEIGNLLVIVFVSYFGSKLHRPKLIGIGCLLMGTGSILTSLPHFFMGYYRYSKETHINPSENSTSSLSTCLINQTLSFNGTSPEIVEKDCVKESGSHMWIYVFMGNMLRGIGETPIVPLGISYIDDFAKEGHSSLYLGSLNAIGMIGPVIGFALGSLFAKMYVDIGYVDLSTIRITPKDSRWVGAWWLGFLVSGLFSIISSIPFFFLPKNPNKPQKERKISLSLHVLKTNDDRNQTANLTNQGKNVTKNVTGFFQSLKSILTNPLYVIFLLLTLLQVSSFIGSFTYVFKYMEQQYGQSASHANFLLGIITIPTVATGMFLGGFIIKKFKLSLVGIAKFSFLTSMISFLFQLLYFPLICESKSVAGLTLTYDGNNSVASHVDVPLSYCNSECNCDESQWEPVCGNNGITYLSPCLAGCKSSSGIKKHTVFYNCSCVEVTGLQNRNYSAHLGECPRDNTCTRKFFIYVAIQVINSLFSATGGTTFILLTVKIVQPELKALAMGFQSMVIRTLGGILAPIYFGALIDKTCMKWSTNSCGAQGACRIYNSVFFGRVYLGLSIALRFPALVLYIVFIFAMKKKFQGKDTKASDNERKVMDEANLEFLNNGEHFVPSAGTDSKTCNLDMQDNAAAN
Protocol: as §3, with “100 µM” for “100 M”, “The OATP1B3” for “The OATP1B1”, “500 μL)” for “500 L)”

[4] = Partition coefficient (log P butanol/buffer); assay type: physicochemical; conditions: 1-butanol / 50 mM Tris-HCl, pH 7.4, room temperature
[5] = test system: freshly isolated rat hepatocytes; experiment: Uptake into freshly isolated rat hepatocytes; conditions: for Uptake rat hepatocytes: 100 μmol Gd/L, 10 min, 37° C., relative to RC1 (Gd-EOB-DTPA); for Inhibition Rifampicine: rat hepatocyte uptake, test item and Rifampicine 1:1, each 100 μM
Protocol: After incubation the adherent hepatocytes were washed once with 37° C. Hepes carbonate transport buffer (500 μL/well). The test items and RC1 were prepared from stock solutions (180 to 500 mM concentration) in Hepes carbonate transport buffer at pH 7.4 to reach a final concentration of 100 μmol Gd/L. The specific uptake of the test item or RC1 into rat hepatocytes via OATP1B1 and OATP1B3 was challenged using a known OATP1B1/1B3 inhibitor (Rifampicine, Fa. Sigma R3501, test item and inhibitor 1:1 each 100 μM final concentration). The prepared rat hepatocyte plates were incubated with test solutions (500 μL/well) at 37° C. for 10 min using a thermoshaker (Fa. Grant Bio, PHMP). Triplicates were performed for each test item. After incubating the cells were washed once with cold PBS buffer (Fa. Gibco, Dulbeccos PBS (+)). After washing the intact hepatocytes were lysed by addition of 500 μL cold 0.01% Triton-X 100 in Millipore water for 1 h. […] As a reference standard RC1 is used in the same well plate. The hepatocyte uptake of the test compound is calculated relative to RC1 (resulting in the unit % of RC1).

SMILES | Solubility [1] [mM] | r1 water [2] [L/mmol/s] | r1 human plasma [3] [L/mmol/s] | Uptake into OATP1B1-HEK 293 cells (OATP1B1) | Inhibition Rifampicine (OATP1B1) [% inhibition] | Uptake into OATP1B3-HEK 293 cells (OATP1B3) | Inhibition Rifampicine (OATP1B3) [% inhibition] | Log P (partition coefficient butanol/buffer) [4] | Uptake rat hepatocytes [5] | Inhibition Rifampicine [5] [% inhibition]
CCCC(C(=O)[O-])N1CCN(CC(=O)[O-])CCN(C(Cc2ccc(OCC)cc2)C(=O)O)CCN(CC(=O)[O-])CC1.[Gd+3] (stereo not shown) [Example 30, gadolinium 2-{7-[1-carboxy-2-(4-ethoxyphenyl)ethyl]-4,10-bis(carboxylatomethyl)-1,4,7,10-tetraazacyclododecan-1-yl}pentanoate] | >35 | 4.7 | 7.6 | 169 % of RC1 | 90 | 62 % of RC1 | 98 | −0.60 | 75 % of RC1 | 99
CCOCCOCCOc1ccc(C[C@@H](C(=O)O)N2CCN(CC(=O)[O-])CCN(CC(=O)[O-])CCN(CC(=O)[O-])CC2)cc1.[Gd+3] [Example 3, gadolinium 2,2′,2″-{10-[(1S)-1-carboxy-2-{4-[2-(2-ethoxyethoxy)ethoxy]phenyl}ethyl]-1,4,7,10-tetraazacyclododecane-1,4,7-triyl}triacetate] | >331 | 4.3 | 6.5 | 63 % of RC1 | 29 | 18 % of RC1 | 89 | −1.61 | 47 % of RC1 | 96
CCOCCOCCOc1ccc(CCC[C@H](C(=O)O)N2CCN([C@H](CO)C(=O)[O-])CCN([C@H](CO)C(=O)[O-])CCN([C@H](CO)C(=O)[O-])CC2)cc1.[Gd+3] [Example 19, gadolinium (2R,2′R,2″R)-2,2′,2″-{10-[(1R)-1-carboxy-4-{4-[2-(2-ethoxyethoxy)ethoxy]phenyl}butyl]-1,4,7,10-tetraazacyclododecane-1,4,7-triyl}tris(3-hydroxypropanoate)] | >410 | 5.3 | 9.0 | – | 92 | – | 96 | −0.95 | 92 % of RC1 | 92
CCOCCOCCOc1cc(CC(C(=O)O)N2CCN(CC(=O)[O-])CCN(CC(=O)[O-])CCN(CC(=O)[O-])CC2)cc(OCCOCCOCC)c1.[Gd+3] (stereo not shown) [Example 39, gadolinium 2,2′,2″-{10-[2-{3,5-bis[2-(2-ethoxyethoxy)ethoxy]phenyl}-1-carboxyethyl]-1,4,7,10-tetraazacyclododecane-1,4,7-triyl}triacetate] | >255 | 4.8 | 7.8 | 59 % of RC1 | 12 | 26 % of RC1 | 88 | −1.32 | 17 % of RC1 | 64
CCOCCOCCOc1ccc(CCC[C@@H](C(=O)O)N2CCN(C(CO)C(=O)[O-])CCN(C(CO)C(=O)[O-])CCN(C(CO)C(=O)[O-])CC2)cc1.[Gd+3] (mixture of isomers) [Example 21, gadolinium-2,2′,2″-{10-[(1S)-1-carboxy-4-{4-[2-(2-ethoxyethoxy)ethoxy]phenyl}butyl]-1,4,7,10-tetraazacyclododecane-1,4,7-triyl}tris(3-hydroxypropanoate)] | >368 | 5.4 | 8.5 | – | 75 | – | 94 | −1.03 | 81 % of RC1 | 91
CCOCCOCCOc1ccc(CCC[C@@H](C(=O)O)N2CCN([C@@H](CO)C(=O)[O-])CCN([C@H](CO)C(=O)[O-])CCN([C@@H](CO)C(=O)[O-])CC2)cc1.[Gd+3] [Example 35, gadolinium (2S,2'S)-2,2′-{4-[(1S)-1-carboxy-4-{4-[2-(2-ethoxyethoxy)ethoxy]phenyl}butyl]-10-[(1R)-1-carboxylato-2-hydroxyethyl]-1,4,7,10-tetraazacyclododecane-1,7-diyl}bis(3-hydroxypropanoate)] | >164 | 5.6 | 8.6 | – | 87 | – | 98 | −1.02 | – | –
